These results are taken from patent US11617777B2, “Cytotoxic and anti-mitotic compounds, and methods of using the same” (ZYMEWORKS BC INC., priority 2013, dated 2023).

Read-outs that look alike come from different tables or passages of the source.

In this experiment the test system is Jurkat cells. Description: Cytotoxicity of compounds, CellTiter-Glo. Type of experiment: cell-based, Human. Conditions: Homo sapiens, Jurkat, read-out: EC50. The source says:
Cell lines used: Human T-cell leukemia cell line Jurkat (ATCC: TIB-152); HCC1954 (ATCC: CRL. 2338); Human Pancreatic cells lines: AsPC-1 (ATCC: CRL-1682), BxPC-3 (ATCC: CRL.1687), HPAF-II (ATCC: CRL.1997), MiaPaCa2 (ATCC: CRL.1420), PANC-1 (ATCC: CRL.1469), Capan-1 (ATCC: HTB-79), Capan-2 (ATCC: HTB-80) and the Human gastric carcinoma cell line NCI-N87 (ATCC: CRL. 5822); AML-193 (ATCC: CRL.9589), CCRF-CEM (ATCC: CCL-119), DU145 (ATCC: HTB-81), PC-3 (ATCC: CRL.1435), A-431 (ATCC: CRL.1555), HT-29 (ATCC: HTB-38), A-172 (ATCC: CRL.1620), NCI-H358 (ATCC: CRL.5807), A549 (ATCC: CCL-185), Colo-205 (ATCC: CCL-222), MDA-MB-231 (ATCC: HTB-26), OVCAR-3 (ATCC: HTB-161), OV-90 (ATCC: CRL.11732), OE19 (Sigma: 96071721), RT 112/84 (Sigma: 85061106).
On the day prior to adding compounds, HCC1954 AsPC-1, BxPC-3, HPAF-II, MiaPaCa2, PANC-1, Capan-1, Capan-2 and NCI-N87 cells were added to opaque-walled 96-well tissue culture-treated microtiter plates using complete growth medium at a density of 2500 cells/100 microlitre (uL) of medium. These adherant cell lines cells were incubated for one night at 37° C./5% CO2 to allow the cells to attach to the microtiter plate surface. On the day that compounds were added, Jurkat cells are added to separate 96-well microtiter plates at 2500 cells/100 uL using the same growth medium as HCC1954. Compound were first serially diluted using dimethyl sulfoxide, and then the prepared dilutions are added to complete growth medium at five-times the final concentration—compounds were then titrated 1:3, eight steps. A control with no compound (growth medium alone) was included on each microtiter plate in sextuplicate. The prepared compounds titrations were added (twenty-five uL/well) in triplicate. The cells and compound titrations were incubated at 37° C./5% CO2 for three nights. After the incubation, cell viability is measured using CellTiter-Glo® reagent by adding thirty uL of prepared CellTiter-Glo® to each assay well. The assay is incubated for at least twenty minutes in the dark prior to measuring emitted luminescence using a microplate luminometer (500 ms integration time). The collected relative luminescence units (RLU) are converted to % cytotoxicity using the Growth medium alone control mentioned above (% Cytotoxicity=1−[Well RLU/average medium alone control RLU]).
GraphPad Prism was used for generation of EC50 values using three parameter non-linear regression curve fitting.

Where [1] appears, read: Table 6, Compound Cytotoxicity on Jurkat.
[2] abbreviates: Table 3, Cytotoxicity of Compounds on Jurkat Cells.

A word on the EC50: it is the concentration that produces a half-maximal response. Take `CN[C@H](C(=O)N[C@H](C(=O)N(C)[C@H](/C=C(\C)C(=O)NS(=O)(=O)CCc1ccc([N+](=O)[O-])cc1)C(C)C)C(C)(C)C)C(C)(C)c1ccccc1` [Compound 73, (S,E)-2,5-dimethyl-N-(4-nitrophenethylsulfonyl)-4-((S)—N,3,3-trimethyl-2-((S)-3-methyl-2-(methylamino)-3-phenylbutanamido)butanamido)hex-2-enamide]: the EC50 under setting [1] amounted to 2.68 nM.

Consider `CN[C@H](C(=O)N[C@H](C(=O)N(C)[C@H](/C=C(\C)C(=O)NS(=O)(=O)c1cc(C(=O)OC)ccc1Cl)C(C)C)C(C)(C)C)C(C)(C)c1ccccc1` [Compound 74, methyl 4-chloro-3-(N—((S,E)-2,5-dimethyl-4-((S)—N,3,3-trimethyl-2-((S)-3-methyl-2-(methylamino)-3-phenylbutanamido)butanamido)hex-2-enoyl)sulfamoyl)benzoate], for which the half-maximal effective concentration (EC50) under setting [2] was found to be 0.087 nM.

Turning to `CN[C@H](C(=O)N[C@H](C(=O)N(C)[C@H](/C=C(\C)C(=O)NS(=O)(=O)Cc1ccc(CNC(=O)C(F)(F)F)cc1)C(C)C)C(C)(C)C)C(C)(C)c1ccccc1` [Compound 76, (S,E)-2,5-dimethyl-N-(4-((2,2,2-trifluoroacetamido)methyl)benzylsulfonyl)-4-((S)—N,3,3-trimethyl-2-((S)-3-methyl-2-(methylamino)-3-phenylbutanamido)butanamido)hex-2-enamide], under setting [2], the EC50 came to 0.328 nM.

Regarding `CN[C@H](C(=O)N[C@H](C(=O)N(C)[C@H](/C=C(\C)C(=O)NS(=O)(=O)c1ccc(CNC(=O)C(F)(F)F)cc1)C(C)C)C(C)(C)C)C(C)(C)c1ccccc1` [Compound 84, (S,E)-2,5-dimethyl-N-(4-((2,2,2-trifluoroacetamido)methyl)phenylsulfonyl)-4-((S)—N,3,3-trimethyl-2-((S)-3-methyl-2-(methylamino)-3-phenylbutanamido)butanamido)hex-2-enamide], the EC50 under setting [2] is 1.39 nM.

For the molecule `CN[C@H](C(=O)N[C@H](C(=O)N(C)[C@H](/C=C(\C)C(=O)NS(=O)(=O)Cc1ccccc1)C(C)C)C(C)(C)C)C(C)(C)c1ccc(-c2ccc(OC)cc2)cc1` [Compound 88, (S,E)-N-(benzylsulfonyl)-4-((S)-2-((S)-3-(4′-methoxybiphenyl-4-yl)-3-methyl-2-(methylamino)butanamido)-N,3,3-trimethylbutanamido)-2,5-dimethylhex-2-enamide], the EC50 under setting [1] is 0.641 nM.

In the case of `CN[C@H](C(=O)N[C@H](C(=O)N(C)[C@H](/C=C(\C)C(=O)NS(=O)(=O)Cc1ccccc1)C(C)C)C(C)(C)C)C(C)(C)c1ccc(OC)cc1` [Compound 91, (S,E)-N-(benzylsulfonyl)-4-((S)-2-((S)-3-(4-methoxyphenyl)-3-methyl-2-(methylamino)butanamido)-N,3,3-trimethylbutanamido)-2,5-dimethylhex-2-enamide], the EC50 under setting [1] was 0.109 nM.

In the case of `CN[C@@H](C(=O)N[C@H](C(=O)N(C)[C@H](/C=C(\C)C(=O)NS(=O)(=O)Cc1ccccc1)C(C)C)C(C)(C)C)C(C)(C)c1cccc(OC)c1` [Compound 92, (S,E)-N-(benzylsulfonyl)-4-((S)-2-((R)-3-(3-methoxyphenyl)-3-methyl-2-(methylamino)butanamido)-N,3,3-trimethylbutanamido)-2,5-dimethylhex-2-enamide], the EC50 under setting [1] was 0.485 nM.

Turning to `CN[C@H](C(=O)N[C@H](C(=O)N(C)[C@H](/C=C(\C)C(=O)NS(=O)(=O)Cc1ccccc1)C(C)C)C(C)(C)C)C(C)(C)c1cccc(OC)c1` [Compound 93, (S,E)-N-(benzylsulfonyl)-4-((S)-2-((S)-3-(3-methoxyphenyl)-3-methyl-2-(methylamino)butanamido)-N,3,3-trimethylbutanamido)-2,5-dimethylhex-2-enamide], under setting [1], the EC50 turned out to be 0.196 nM.

Regarding `CN[C@H](C(=O)N[C@H](C(=O)N(C)[C@H](/C=C(\C)C(=O)NS(=O)(=O)Cc1ccccc1)C(C)C)C(C)(C)C)C(C)(C)c1ccc(OCCO)cc1` [Compound 94, (S,E)-N-(benzylsulfonyl)-4-((S)-2-((S)-3-(4-(2-hydroxyethoxy)phenyl)-3-methyl-2-(methylamino)butanamido)-N,3,3-trimethylbutanamido)-2,5-dimethylhex-2-enamide], the EC50 under setting [1] stood at 1.67 nM.
